PubChem BioAssay (NCI)
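Growth conditions: 96-well plates. Treatment: test compound, 48 hours, 5 concentrations. Analysis: linear interpolation between bracketing concentrations; unreached endpoints set to highest concentration. At the TGI there is no net growth.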

How the values were obtained:
Experiment in all cases: NCI tumour cell line growth inhibition, 48 h
786-0 renal = test system: 786-0 renal
A498 renal = test system: A498 renal
A549 NSCLC = test system: A549 NSCLC
ACHN renal = test system: ACHN renal
CAKI-1 renal = test system: CAKI-1 renal
CCRF-CEM leukemia = test system: CCRF-CEM leukemia
DLD-1 colon = test system: DLD-1 colon
DMS 114 small cell lung = test system: DMS 114 small cell lung
DMS 273 small cell lung = test system: DMS 273 small cell lung
EKVX NSCLC = test system: EKVX NSCLC
HCC-2998 colon = test system: HCC-2998 colon
HCT-116 colon = test system: HCT-116 colon
HCT-15 colon = test system: HCT-15 colon
HL-60(TB) leukemia = test system: HL-60(TB) leukemia
HOP-18 NSCLC = test system: HOP-18 NSCLC
HOP-62 NSCLC = test system: HOP-62 NSCLC
HOP-92 NSCLC = test system: HOP-92 NSCLC
HT29 colon = test system: HT29 colon
IGROV1 ovarian = test system: IGROV1 ovarian
K-562 leukemia = test system: K-562 leukemia
KM12 colon = test system: KM12 colon
KM20L2 colon = test system: KM20L2 colon
LXFL 529 NSCLC = test system: LXFL 529 NSCLC
M14 melanoma = test system: M14 melanoma
M19-MEL melanoma = test system: M19-MEL melanoma
MOLT-4 leukemia = test system: MOLT-4 leukemia
NCI-H23 lung = test system: NCI-H23 lung
NCI-H460 lung = test system: NCI-H460 lung
NCI-H522 lung = test system: NCI-H522 lung
OVCAR-3 ovarian = test system: OVCAR-3 ovarian
OVCAR-4 ovarian = test system: OVCAR-4 ovarian
OVCAR-5 ovarian = test system: OVCAR-5 ovarian
OVCAR-8 ovarian = test system: OVCAR-8 ovarian
RPMI-8226 leukemia = test system: RPMI-8226 leukemia
RXF-631 renal = test system: RXF-631 renal
SF-268 CNS = test system: SF-268 CNS
SF-295 CNS = test system: SF-295 CNS
SF-539 CNS = test system: SF-539 CNS
SK-MEL-28 melanoma = test system: SK-MEL-28 melanoma
SK-MEL-5 melanoma = test system: SK-MEL-5 melanoma
SK-OV-3 ovarian = test system: SK-OV-3 ovarian
SN12C renal = test system: SN12C renal
SNB-19 CNS = test system: SNB-19 CNS
SNB-75 CNS = test system: SNB-75 CNS
SNB-78 CNS = test system: SNB-78 CNS
SR leukemia = test system: SR leukemia
SW-620 colon = test system: SW-620 colon
U251 CNS = test system: U251 CNS
UACC-257 melanoma = test system: UACC-257 melanoma
UACC-62 melanoma = test system: UACC-62 melanoma
UO-31 renal = test system: UO-31 renal
COLO 205 colon = test system: COLO 205 colon
LOX IMVI melanoma = test system: LOX IMVI melanoma
MCF7 breast = test system: MCF7 breast
NCI-H226 lung = test system: NCI-H226 lung
NCI/ADR-RES ovarian = test system: NCI/ADR-RES ovarian
P388 leukemia = test system: P388 leukemia
P388/ADR leukemia = test system: P388/ADR leukemia
RXF 393 renal = test system: RXF 393 renal
SK-MEL-2 melanoma = test system: SK-MEL-2 melanoma
SN12K1 renal = test system: SN12K1 renal

In the case of `C/C(=N\NS(=O)(=O)c1ccccc1)c1ccc[n+]([O-])n1`, the TGI (786-0 renal) is reported as greater than 100 µM, the TGI (A498 renal) is reported as greater than 100 µM and the TGI (A549 NSCLC) is reported as greater than 100 µM. It also gave a TGI (ACHN renal) greater than 100 µM, a TGI (CAKI-1 renal) greater than 100 µM and a TGI (CCRF-CEM leukemia) of 64.6 µM. The TGI (DLD-1 colon) was greater than 100 µM, the TGI (DMS 114 small cell lung) was greater than 100 µM and the TGI (DMS 273 small cell lung) was greater than 100 µM. For the same compound, the TGI (EKVX NSCLC) was greater than 100 µM, the TGI (HCC-2998 colon) was greater than 100 µM and the TGI (HCT-116 colon) was greater than 100 µM. For the same compound, the TGI (HCT-15 colon) was greater than 100 µM, the TGI (HL-60(TB) leukemia) was 69.9 µM and the TGI (HOP-18 NSCLC) was greater than 100 µM. The TGI (HOP-62 NSCLC) was greater than 100 µM, the TGI (HOP-92 NSCLC) was greater than 100 µM and the TGI (HT29 colon) was greater than 100 µM. For the same compound, the TGI (IGROV1 ovarian) was greater than 100 µM, the TGI (K-562 leukemia) was greater than 100 µM and the TGI (KM12 colon) was greater than 100 µM. The TGI (KM20L2 colon) was greater than 100 µM, the TGI (LXFL 529 NSCLC) was greater than 100 µM and the TGI (M14 melanoma) was greater than 100 µM. It also gave a TGI (M19-MEL melanoma) greater than 100 µM, a TGI (MOLT-4 leukemia) greater than 100 µM and a TGI (NCI-H23 lung) greater than 100 µM. The TGI (NCI-H460 lung) was greater than 100 µM, the TGI (NCI-H522 lung) was 79 µM and the TGI (OVCAR-3 ovarian) was greater than 100 µM. For the same compound, the TGI (OVCAR-4 ovarian) was greater than 100 µM, the TGI (OVCAR-5 ovarian) was greater than 100 µM and the TGI (OVCAR-8 ovarian) was greater than 100 µM. The TGI (RPMI-8226 leukemia) was greater than 100 µM, the TGI (RXF-631 renal) was greater than 100 µM and the TGI (SF-268 CNS) was greater than 100 µM. The TGI (SF-295 CNS) was greater than 100 µM, the TGI (SF-539 CNS) was greater than 100 µM and the TGI (SK-MEL-28 melanoma) was greater than 100 µM. For the same compound, the TGI (SK-MEL-5 melanoma) was greater than 100 µM, the TGI (SK-OV-3 ovarian) was greater than 100 µM and the TGI (SN12C renal) was greater than 100 µM. It also gave a TGI (SNB-19 CNS) greater than 100 µM, a TGI (SNB-75 CNS) greater than 100 µM and a TGI (SNB-78 CNS) greater than 100 µM. It also gave a TGI (SR leukemia) greater than 100 µM, a TGI (SW-620 colon) greater than 100 µM and a TGI (U251 CNS) greater than 100 µM. It also gave a TGI (UACC-257 melanoma) greater than 100 µM, a TGI (UACC-62 melanoma) greater than 100 µM and a TGI (UO-31 renal) greater than 100 µM.
`O=C1NC(=O)C2(CCc3ccc(N(CCCl)CCCl)cc32)N1` (stereo unspecified) gave a TGI (A498 renal) of 33.1 µM, a TGI (A549 NSCLC) greater than 65 µM and a TGI (CAKI-1 renal) greater than 47.9 µM. It also gave a TGI (CCRF-CEM leukemia) greater than 79.7 µM, a TGI (COLO 205 colon) of 17.5 µM and a TGI (DLD-1 colon) greater than 81.8 µM. For the same compound, the TGI (DMS 114 small cell lung) was 26 µM, the TGI (DMS 273 small cell lung) was 16 µM and the TGI (EKVX NSCLC) was 16.4 µM. The TGI (HCC-2998 colon) was 34.1 µM, the TGI (HCT-116 colon) was 31.7 µM and the TGI (HCT-15 colon) was 49 µM. The TGI (HL-60(TB) leukemia) was 9.75 µM, the TGI (HOP-18 NSCLC) was 64.4 µM and the TGI (HOP-62 NSCLC) was 35.5 µM. The TGI (HOP-92 NSCLC) was 39.7 µM, the TGI (HT29 colon) was 59.3 µM and the TGI (IGROV1 ovarian) was 34.6 µM. For the same compound, the TGI (K-562 leukemia) was greater than 100 µM, the TGI (KM12 colon) was greater than 84.1 µM and the TGI (KM20L2 colon) was 42.8 µM. The TGI (LOX IMVI melanoma) was 26.5 µM, the TGI (M19-MEL melanoma) was 39.5 µM and the TGI (MCF7 breast) was 61.4 µM. The TGI (MOLT-4 leukemia) was 49.8 µM, the TGI (NCI-H226 lung) was 21.7 µM and the TGI (NCI-H23 lung) was 26.2 µM. For the same compound, the TGI (NCI-H460 lung) was 23.8 µM, the TGI (NCI-H522 lung) was 20.3 µM and the TGI (NCI/ADR-RES ovarian) was 40.6 µM. The TGI (OVCAR-3 ovarian) was 41.4 µM, the TGI (OVCAR-4 ovarian) was 41.4 µM and the TGI (OVCAR-5 ovarian) was 50.2 µM. It also gave a TGI (OVCAR-8 ovarian) of 36.2 µM, a TGI (P388 leukemia) of 15.5 µM and a TGI (P388/ADR leukemia) of 36.7 µM. It also gave a TGI (RPMI-8226 leukemia) of 99.2 µM, a TGI (RXF 393 renal) of 22.5 µM and a TGI (SF-268 CNS) of 73.5 µM. For the same compound, the TGI (SF-295 CNS) was greater than 61.5 µM, the TGI (SF-539 CNS) was 22.2 µM and the TGI (SK-MEL-2 melanoma) was 43.4 µM. It also gave a TGI (SK-MEL-28 melanoma) of 38.1 µM, a TGI (SK-MEL-5 melanoma) of 26.6 µM and a TGI (SK-OV-3 ovarian) of 47 µM. For the same compound, the TGI (SN12C renal) was greater than 100 µM, the TGI (SN12K1 renal) was 37.1 µM and the TGI (SNB-19 CNS) was greater than 84.7 µM. The TGI (SNB-75 CNS) was 26.3 µM, the TGI (SNB-78 CNS) was greater than 100 µM and the TGI (SW-620 colon) was 61.9 µM. The TGI (U251 CNS) was 33 µM, the TGI (UACC-257 melanoma) was 45.2 µM and the TGI (UACC-62 melanoma) was 15.8 µM. The TGI (UO-31 renal) was 48 µM.
